“Also recorded” adds a separate entry of the source. Where a SMILES comes first, the peptide text is derived from it. Bridges are numbered along the chain shown (N, C = ends).
How the values were obtained:
15 different proteases = test: Selectivity of P12-3A against 15 other proteases (MMPs and peptidases of different classes); assay type: biochemical; conditions: P12-3A 100 μM
Description: FIG. 8A-B. Selectivity of P12-3A for IDE vis-à-vis other proteases. Activity of P12-3A (100 μM) against (A) multiple matrix-metalloproteases (MMPs) and (B) multiple peptidases of different protease classes. […] Data are mean±SEM, n=8-16 per group. P<0.05 by 2-tailed Student's t-test. […] See Experimental Procedures for details. NEP, neprilysin; mCatD, murine cathepsin D; hCatD, human cathepsin D.
Degradation Assays—IDE activity was quantified by monitoring the degradation of (7-methoxycoumarin-4-yl)acetic acid-[…](2,4-dinitrophenyl) (FRET1, 5 μM) (49,55), fluoresceinated and biotinylated amyloid β-protein (FAβB; 500 nM) or recombinant human insulin (50 nM) in PBS supplemented with 0.05% BSA. FRET1 degradation was measured by changes in fluorescence (λex=340 nm, λem=420 nm); FAβB degradation was monitored by fluorescence polarization (λex=488 nm, λem=525 nm), as described (56); and insulin degradation was quantified by ELISA. In vitro activity assays incorporated recombinant human IDE (1 nM) purified from bacteria (35). For quantitation of insulin degradation in primary murine skin fibroblasts, cells (1×10^5/well) were plated in 96-well plates and maintained in DMEM supplemented with 10% fetal bovine serum (FBS), 2 mM glutamine, penicillin and streptomycin. […]

HaCaT cells = test: In vitro scratch wound assay, keratinocyte migration; assay type: cell-based; conditions: P12-3A 100 μM, 48 h after scratch wound, different concentrations of insulin
Description: (§1) FIG. 4A-F. Effects of P12-3A on cultured skin cells. A, Insulin concentrations as a function of time in logarithmically growing primary murine skin fibroblasts in the absence or presence of P12-3A (100 μM). […] Data are mean±SEM of 4 independent replications. *P<0.05, **P<0.01. B, Proliferation of cells in the absence or presence of P12-3A (100 μM). […] C,D,E, P12-3A (100 μM) potentiates insulin-induced collagen production in skin fibroblasts. Collagen production was assessed by COL1A1 mRNA levels (C), levels of hydroxyproline secreted into the medium (D), and cell-associated mature alpha-1 type I collagen levels detected by Western blotting (E). […] Migration of HaCaT cells 48 h after induction of a scratch wound in the presence of the indicated quantities of insulin and/or P12-3A (100 μM). […]
(§2) Insulin promotes wound healing and overall skin health by affecting a number of processes, including cell proliferation (2,3), cell migration (5,6), and the production and secretion of ECM components, particularly type I collagen (7-13). We therefore assessed the ability of P12-3A to influence these processes in cultured skin fibroblasts and keratinocytes. To that end, primary mouse skin fibroblasts were grown for 4 d in multiple concentrations of insulin in the presence or absence of P12-3A, and insulin concentration over time was monitored by ELISA. […]

[1] = tested on: primary murine skin fibroblasts; test: Hydroxyproline secreted into the medium (collagen production and secretion); assay type: cell-based, mouse; conditions: P12-3A 100 μM
Description: as §1, §2

In the case of `CC(C)C[C@H](NC(=O)[C@H](CO)NC(=O)[C@@H](N)CCC(N)=O)C(=O)N1CCC[C@H]1C(=O)N[C@@H](Cc1c[nH]c2ccccc12)C(=O)N[C@H]1CSSC[C@@H](C(=O)N[C@H](C(=O)N[C@H](C(N)=O)[C@@H](C)O)C(C)C)NC(=O)[C@H](Cc2c[nH]cn2)NC(=O)[C@@H]2CCCN2C(=O)[C@H](Cc2ccc(O)cc2)NC1=O` [Peptide P12-3A] (H-QSLPWCYPHCVT-NH2; disulfide 6-10 (inferred)), the “inhibition of 15 different proteases” value (15 different proteases) is reported as “essentially no inhibition”, the migration of keratinocytes (HaCaT cells) is reported as “significantly increase; also recorded: potentiates the migration of keratinocytes” and the “hydroxyproline levels secreted into the medium” value [1] is reported as ~4.6 times that secreted by untreated cells.
